From patent US20090054412A1, “Treatment of Sleep Disorders” (priority 2007, published 2009)
Values joined by “and” are separate entries in the source; they are usually repeats but may differ in a detail not shown here. Equal values may be shown once.

What was measured:
[1] = molecular target: T1, rat GABAA receptors α1β2γ2 (Rattus norvegicus, UniProt P18508+P62813); assay: Stimulation of GABA (EC3-5)-elicited currents in Xenopus oocytes, two-electrode voltage clamp, α1β2γ2; format: cell-based; conditions: for Standardized Efficacy: standardized to stimulation by 1 μM diazepam (100%)
T1 construct: expressed in transfected cells; host or cells: Xenopus laevis oocytes, cRNA microinjected
Excerpt: (§1) 7-Chloro-3-(5-dimethylaminomethyl-[1,2,4]oxadiazol-3-yl)-5methyl-4,5-dihydro-imidazol[1,5,-a][1,4]benzodiazepine-6-one was used to test the effects of the compound of formula (II): […]
(§2) Similar procedures were chosen as for the investigation of other GABAA receptor subunit specific substances (e.g., Baur et al., 2005; Mol. Pharmacol. 68, 787-792).
(§3) Lobes of the ovary containing the follicles were obtained by surgical procedures from female Xenopus laevis. Follicles were singled out using a platinum loop. Fifty nL of cRNA solution at a ratio of αx:β2:γ2 of 1:1:5 (3.3-10 nM αx (x=1,2,3,5); 3.3-10 nM β2; 16.7-50 nM γ2) (Boileau et al., 2002; Neuropharmacology 43, 695-700) were microinjected into Xenopus follicles. Several hours after microinjection the follicles were freed of follicular layers and adhering connective tissue by a collagenase/hypertonic shock procedure (Sigel, 1987; J. Physiol.(Land) 386, 73-90). Oocytes were kept at constant 18° C. until measurement (1-4 days) in a modified Barth solution (88 mM NaCl, 1 mM KCl, 2.4 mM NaHCO3, 10 mM Hepes-NaOH (pH 7.5), 0.82 mM MgSO4×7H2O, 0.34 mM Ca(NO3)2×4H2O, 0.41 mM CaCl2×2H2O, 100 U Penicillin/mL, 100 μg Streptomycin/mL, sterile filtered).
(§4) Currents were measured using a home-built amplifier in combination with a xy-recorder or were digitized using a MacLab/200 (AD Instruments) and stored on a computer. Xenopus oocytes were voltage clamped using the two-electrode voltage clamp technique (electrode resistance about 0.8 MΩ) at −80 mV. The medium contained 90 mM NaCl, 1 mM KCl, 1 mM MgCl2, 1 mM CaCl2, 10 mM Na-Hepes (pH 7.4) and 0.5% DMSO.
(§5) GABA was applied for 20-50 seconds without or in combination with other drugs and a washout period of 4 minutes was allowed to ensure full recovery from desensitization, which was experimentally determined. The perfusion solution (6 mL/min) was applied through a glass capillary with an inner diameter of 1.35 mm, the mouth of which was placed about 0.4 mm from the surface of the oocyte. The rate of solution change under our conditions has been estimated 70% within less than 0.5 s (Sigel et al., 1990; Neuron 5, 703-711). The entire perfusion system and the assay chamber were cleaned between drug applications by washing with DMSO.
(§6) Data is given as mean±SD, except in the figures where data is shown for clarity as mean±SEM. Current stimulation was calculated as follows: stimulation (%)=((I(GABA+modulator)−I(GABA))/I(GABA))×100%, where I is the current amplitude. Where indicated, the stimulation was standardized to the stimulation by 1 μM diazepam (100%). To obtain FIGS. 1-4, values for current stimulation obtained at a given concentration of modulator at a given subunit combination were averaged. The data points were fitted with the equation stimulation=efficacy/(1+(potency/concentration of modulator)). The values given in the Tables (Summary) are obtained by fitting individual curves and subsequently averaging efficacy and potency.
GABA (EC3-5) was applied to an oocyte expressing α1β2γ2 GABAA receptors several times until the current response was stable. The GABA (EC3-5) refers to the effective concentration of GABA, which produces a response that is 3-5% of the maximal response to high concentrations of GABA. Such a low concentration of GABA is chosen in order to better see the potentiating effect of positive allosteric modulators.
GABA was then applied in combination with various concentrations of the compound of formula (II) between 0.3 nM and 3,000 nM to produce a cumulative concentration response curve. […] In each batch of oocytes the stimulation by 1 μM diazepam was determined in five ocytes, extent of stimulation averaged and defined as 100%. Where indicated, stimulation by the compound of formula (II) in each batch of ocytes was expressed as a percentage of this value in the corresponding batch.
GABA (EC3-5) was applied to an oocyte expressing α1β2γ2 GABAA receptors several times until the current response was stable.

GABAA receptors = conditions: 20 mg, in man, PET; cited from earlier work
[2] = molecular target: T2, rat GABAA receptors α3β2γ2 (Rattus norvegicus, UniProt P18508+P20236); assay: Stimulation of GABA (EC3-5)-elicited currents in Xenopus oocytes, two-electrode voltage clamp, α3β2γ2; format: cell-based
T2 construct: expressed in transfected cells; host or cells: Xenopus laevis oocytes, cRNA microinjected
Excerpt: as §1, §2, §3, §4, §5, §6
(§7) Concentration response curves were also performed with oocytes expressing α2β2γ2, α3β2γ2, or α5β2γ2, after establishing the optimal concentration range as indicated above. […] Averaged data of the individual curves summarizing the effects of the compound of formula (II) are shown below for unstandardized and standardized stimulation.
(§8) Concentration response curves were also performed with oocytes expressing α2β2γ2, α3β2γ2, or α5β2γ2.
(§9) Current stimulation by diazepam was determined in each batch of oocytes as follows. GABA (EC3-5) was applied until a stable response was obtained. Subsequently, GABA was applied in combination with 1 μM diazepam.

[3] = molecular target: T3, rat GABAA receptors α2β2γ2 (Rattus norvegicus, UniProt P18508+P23576); assay: Stimulation of GABA (EC3-5)-elicited currents in Xenopus oocytes, two-electrode voltage clamp, α2β2γ2; format: cell-based
T3 construct: expressed in transfected cells; host or cells: Xenopus laevis oocytes, cRNA microinjected
Excerpt: as §1, §2, §3, §4, §5, §6, §7, §8, §9

[4] = molecular target: T4, rat GABAA receptors α5β2γ2 (Rattus norvegicus, UniProt P18508+P19969); assay: Stimulation of GABA (EC3-5)-elicited currents in Xenopus oocytes, two-electrode voltage clamp, α5β2γ2; format: cell-based
T4 construct: expressed in transfected cells; host or cells: Xenopus laevis oocytes, cRNA microinjected
Excerpt: as §1, §2, §3, §4, §5, §6, §7, §8, §9

[5] = standardized to stimulation by 1 μM diazepam (100%)
[6] = unstandardized current stimulation
[7] = 1 μM, different batches of oocytes, n=5

T4 sequence (P19969 32-464 limits assumed): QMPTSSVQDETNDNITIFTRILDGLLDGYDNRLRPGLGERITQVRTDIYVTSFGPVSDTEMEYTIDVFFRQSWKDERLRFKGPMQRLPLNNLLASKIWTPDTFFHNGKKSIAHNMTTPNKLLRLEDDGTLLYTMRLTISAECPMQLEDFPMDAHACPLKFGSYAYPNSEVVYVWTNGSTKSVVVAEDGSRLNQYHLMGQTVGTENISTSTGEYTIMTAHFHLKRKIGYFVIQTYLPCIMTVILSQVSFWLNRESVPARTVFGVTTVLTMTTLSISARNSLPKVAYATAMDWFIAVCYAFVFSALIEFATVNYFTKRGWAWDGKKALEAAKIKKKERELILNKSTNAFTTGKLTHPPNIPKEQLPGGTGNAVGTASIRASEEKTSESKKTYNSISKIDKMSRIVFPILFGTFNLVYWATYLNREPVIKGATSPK
T4 sequence (P63138 25-474 partner limits assumed): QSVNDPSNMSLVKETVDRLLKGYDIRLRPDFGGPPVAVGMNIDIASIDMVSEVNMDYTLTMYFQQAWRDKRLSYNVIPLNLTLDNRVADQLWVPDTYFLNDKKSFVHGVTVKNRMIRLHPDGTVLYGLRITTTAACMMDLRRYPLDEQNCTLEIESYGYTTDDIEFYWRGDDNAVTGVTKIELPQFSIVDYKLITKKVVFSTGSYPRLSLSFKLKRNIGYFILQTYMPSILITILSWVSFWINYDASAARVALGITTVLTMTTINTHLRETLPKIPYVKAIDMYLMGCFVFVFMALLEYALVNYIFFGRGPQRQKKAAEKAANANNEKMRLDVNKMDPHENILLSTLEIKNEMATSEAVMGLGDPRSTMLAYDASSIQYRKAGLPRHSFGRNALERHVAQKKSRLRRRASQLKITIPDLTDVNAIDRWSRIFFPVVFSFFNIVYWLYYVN
T4 sequence (P18508 39-466): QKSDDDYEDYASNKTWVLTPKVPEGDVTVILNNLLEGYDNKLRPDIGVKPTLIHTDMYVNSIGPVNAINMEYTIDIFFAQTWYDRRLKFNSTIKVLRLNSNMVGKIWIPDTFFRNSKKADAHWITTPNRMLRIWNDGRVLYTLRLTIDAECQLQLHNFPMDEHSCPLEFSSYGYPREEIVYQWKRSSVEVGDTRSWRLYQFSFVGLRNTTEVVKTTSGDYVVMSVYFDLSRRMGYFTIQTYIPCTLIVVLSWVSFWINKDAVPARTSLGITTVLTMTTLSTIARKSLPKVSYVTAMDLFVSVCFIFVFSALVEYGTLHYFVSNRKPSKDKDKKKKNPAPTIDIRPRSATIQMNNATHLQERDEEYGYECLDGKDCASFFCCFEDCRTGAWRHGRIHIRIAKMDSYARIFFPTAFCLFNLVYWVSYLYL
T3 sequence (P23576 29-451): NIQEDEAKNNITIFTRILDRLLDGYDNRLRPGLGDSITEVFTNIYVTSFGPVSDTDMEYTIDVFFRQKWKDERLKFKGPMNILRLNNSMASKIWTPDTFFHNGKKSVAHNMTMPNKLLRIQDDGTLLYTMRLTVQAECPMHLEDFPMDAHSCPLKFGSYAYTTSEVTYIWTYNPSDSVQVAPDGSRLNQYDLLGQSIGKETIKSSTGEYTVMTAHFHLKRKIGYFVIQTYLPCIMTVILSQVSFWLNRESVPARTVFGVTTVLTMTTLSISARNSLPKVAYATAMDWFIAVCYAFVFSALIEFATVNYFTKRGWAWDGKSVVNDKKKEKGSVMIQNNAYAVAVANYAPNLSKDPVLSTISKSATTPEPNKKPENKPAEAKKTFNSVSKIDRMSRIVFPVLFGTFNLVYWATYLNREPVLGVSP
T3 sequence (P63138 25-474 partner limits assumed): as the sequence (P63138 25-474 partner limits assumed) above
T3 sequence (P18508 39-466): as the sequence (P18508 39-466) above
T2 sequence (P20236 29-493): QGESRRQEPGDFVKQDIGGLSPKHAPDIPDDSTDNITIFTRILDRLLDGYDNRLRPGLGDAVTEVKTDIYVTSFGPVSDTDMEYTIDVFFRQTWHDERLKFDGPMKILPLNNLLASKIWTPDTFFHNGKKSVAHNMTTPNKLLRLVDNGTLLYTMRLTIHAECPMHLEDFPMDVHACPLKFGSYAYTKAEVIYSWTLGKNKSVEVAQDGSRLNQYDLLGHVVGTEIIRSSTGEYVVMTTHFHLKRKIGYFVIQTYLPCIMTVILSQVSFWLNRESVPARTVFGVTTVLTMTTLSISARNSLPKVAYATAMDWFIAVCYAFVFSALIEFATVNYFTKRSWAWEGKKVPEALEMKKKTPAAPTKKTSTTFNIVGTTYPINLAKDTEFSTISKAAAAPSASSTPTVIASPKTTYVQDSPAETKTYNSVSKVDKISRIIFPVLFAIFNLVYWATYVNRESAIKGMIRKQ
T2 sequence (P63138 25-474 partner limits assumed): as the sequence (P63138 25-474 partner limits assumed) above
T2 sequence (P18508 39-466): as the sequence (P18508 39-466) above
T1 sequence (P62813 28-455): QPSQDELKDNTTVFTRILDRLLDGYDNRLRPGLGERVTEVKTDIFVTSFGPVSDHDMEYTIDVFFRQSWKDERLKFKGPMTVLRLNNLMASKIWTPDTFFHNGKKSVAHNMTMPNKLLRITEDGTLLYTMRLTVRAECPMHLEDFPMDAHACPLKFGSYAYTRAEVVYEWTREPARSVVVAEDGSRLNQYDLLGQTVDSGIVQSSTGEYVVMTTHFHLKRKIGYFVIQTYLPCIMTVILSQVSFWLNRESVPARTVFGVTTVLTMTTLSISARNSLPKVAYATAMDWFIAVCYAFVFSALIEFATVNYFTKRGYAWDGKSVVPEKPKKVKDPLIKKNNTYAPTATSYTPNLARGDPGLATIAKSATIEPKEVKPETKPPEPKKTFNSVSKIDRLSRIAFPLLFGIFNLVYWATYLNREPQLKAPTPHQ
T1 sequence (P63138 25-474 partner limits assumed): as the sequence (P63138 25-474 partner limits assumed) above
T1 sequence (P18508 39-466): as the sequence (P18508 39-466) above

Structure (SMILES) | Intrinsic activity / type of allosteric modulation ([1]; GABAA receptor benzodiazepine site, relative to diazepam) | Receptor subtype affinity ([1]; in comparison to α2β2γ2, α3β2γ2 and α5β2γ2) | Standardized Efficacy ([1]; α1β2γ2) | Standardized Efficacy ([1]; α1β2γ2, listed as zolpidem) | Efficacy ([1]; α1β2γ2, unstandardized current stimulation) | receptor occupancy (GABAA receptors) | Standardized Efficacy [2, 5] | Efficacy [2, 6] | Standardized Efficacy [3, 5] | Efficacy [3, 6] | Standardized Efficacy [4, 5] | Efficacy [4, 6] | Stimulation by 1 μM diazepam ([1]; α1β2γ2, 1 μM, different batches of oocytes, n=5) | Stimulation by 1 μM diazepam [2, 7] | Stimulation by 1 μM diazepam [3, 7] | Stimulation by 1 μM diazepam [4, 7]
Cc1ccc(-c2nc3ccc(C)cn3c2CC(=O)N(C)C)cc1 [Zolpidem, zolpidem] | full agonist | higher affinity at α1β2γ2 GABAA receptors | 215 ± 74% | 215% | 429 ± 120% | about 20% | 166 ± 88% | 691 ± 365% | 179 ± 23% | 484 ± 60% | 16 ± 4% | 33 ± 12% | – | – | – | –
CN1C(=O)CN=C(c2ccccc2)c2cc(Cl)ccc21 [diazepam] | – | – | – | – | – | – | – | – | – | – | – | – | 223+28% and 178+20% | 417+85% and 417+144% | 264+61% and 280+71% and 318+62% | 237+97% and 160+4%
